Among the data in ChEMBL document CHEMBL5696441 (Nat Chem Biol, 2011) are Activity values, retold here.

Experiment [1] concerns the target Mitogen-activated protein kinase kinase kinase 5 (Homo sapiens) (UniProt Q99683). Kind of experiment: Inhibition of ASK1 (unknown origin) assessed as remaining activity at 1 uM by Kinome scan method relative to control.
In experiment [2] the target is Cyclin-dependent kinase 7 (Homo sapiens) (UniProt P50613). Kind of experiment: Inhibition of CDK7 (unknown origin) assessed as remaining activity at 1 uM by Kinome scan method relative to control.
Chain of Cyclin-dependent kinase 7 (Homo sapiens) (P50613 whole entry): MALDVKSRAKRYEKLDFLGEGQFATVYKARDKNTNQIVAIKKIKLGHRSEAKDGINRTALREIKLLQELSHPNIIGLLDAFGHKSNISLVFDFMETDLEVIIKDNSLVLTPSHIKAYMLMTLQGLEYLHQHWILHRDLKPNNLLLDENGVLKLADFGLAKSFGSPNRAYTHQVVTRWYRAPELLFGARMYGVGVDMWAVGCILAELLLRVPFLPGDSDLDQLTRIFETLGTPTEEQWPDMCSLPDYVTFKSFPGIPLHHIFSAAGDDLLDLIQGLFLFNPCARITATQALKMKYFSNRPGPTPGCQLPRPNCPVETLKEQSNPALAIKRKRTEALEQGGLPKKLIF
For experiment [3], the target named is Inhibitor of nuclear factor kappa-B kinase subunit beta (Homo sapiens) (UniProt O14920). As to the kind of experiment: Inhibition of IKK-beta (unknown origin) assessed as remaining activity at 1 uM by Kinome scan method relative to control.
For experiment [4], the target named is Protein kinase C epsilon type (Homo sapiens) (UniProt Q02156). As to the kind of experiment: Inhibition of PRKCE (unknown origin) assessed as remaining activity at 1 uM by Kinome scan method relative to control.
Experiment [5] addresses Cyclin-dependent kinase 5/CDK5 activator 1 (Homo sapiens) (UniProt Q00535+Q15078). Kind of experiment: Inhibition of human CDK5/p25NCK assessed as residual activity at 1 uM using RBER-CHKtide as substrate in presence of 33P-ATP by ProQinase assay relative to control. The class given is protein-complex assay.
The target of experiment [6] is Eukaryotic elongation factor 2 kinase (Homo sapiens) (UniProt O00418). As to the kind of experiment: Inhibition of human EEF2K assessed as residual activity at 1 uM using RBER-GSK3 as substrate in presence of 33P-ATP by ProQinase assay relative to control.
Chain of Eukaryotic elongation factor 2 kinase (Homo sapiens) (O00418 whole entry): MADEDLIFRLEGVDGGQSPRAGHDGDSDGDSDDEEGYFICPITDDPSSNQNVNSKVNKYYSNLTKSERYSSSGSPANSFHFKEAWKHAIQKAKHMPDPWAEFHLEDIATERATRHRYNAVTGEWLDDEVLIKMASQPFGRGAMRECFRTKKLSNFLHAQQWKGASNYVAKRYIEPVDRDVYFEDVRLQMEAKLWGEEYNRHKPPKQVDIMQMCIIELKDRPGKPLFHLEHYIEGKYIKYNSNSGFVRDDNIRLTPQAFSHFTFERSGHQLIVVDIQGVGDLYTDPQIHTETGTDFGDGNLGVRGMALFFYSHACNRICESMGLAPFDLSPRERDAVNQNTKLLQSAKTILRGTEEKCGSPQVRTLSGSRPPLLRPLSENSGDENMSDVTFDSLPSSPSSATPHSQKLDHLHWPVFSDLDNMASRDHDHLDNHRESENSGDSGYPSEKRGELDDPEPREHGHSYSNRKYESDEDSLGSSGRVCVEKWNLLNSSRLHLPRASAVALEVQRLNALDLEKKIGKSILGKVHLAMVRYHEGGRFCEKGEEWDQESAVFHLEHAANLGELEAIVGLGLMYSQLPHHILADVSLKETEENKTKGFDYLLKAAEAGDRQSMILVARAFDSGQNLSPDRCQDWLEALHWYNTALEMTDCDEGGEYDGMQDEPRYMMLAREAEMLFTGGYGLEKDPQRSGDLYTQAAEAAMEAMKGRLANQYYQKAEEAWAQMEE
In experiment [7] the target is T1, Ephrin type-B receptor 4 (Homo sapiens) (UniProt P54760).
T1 sequence (whole entry): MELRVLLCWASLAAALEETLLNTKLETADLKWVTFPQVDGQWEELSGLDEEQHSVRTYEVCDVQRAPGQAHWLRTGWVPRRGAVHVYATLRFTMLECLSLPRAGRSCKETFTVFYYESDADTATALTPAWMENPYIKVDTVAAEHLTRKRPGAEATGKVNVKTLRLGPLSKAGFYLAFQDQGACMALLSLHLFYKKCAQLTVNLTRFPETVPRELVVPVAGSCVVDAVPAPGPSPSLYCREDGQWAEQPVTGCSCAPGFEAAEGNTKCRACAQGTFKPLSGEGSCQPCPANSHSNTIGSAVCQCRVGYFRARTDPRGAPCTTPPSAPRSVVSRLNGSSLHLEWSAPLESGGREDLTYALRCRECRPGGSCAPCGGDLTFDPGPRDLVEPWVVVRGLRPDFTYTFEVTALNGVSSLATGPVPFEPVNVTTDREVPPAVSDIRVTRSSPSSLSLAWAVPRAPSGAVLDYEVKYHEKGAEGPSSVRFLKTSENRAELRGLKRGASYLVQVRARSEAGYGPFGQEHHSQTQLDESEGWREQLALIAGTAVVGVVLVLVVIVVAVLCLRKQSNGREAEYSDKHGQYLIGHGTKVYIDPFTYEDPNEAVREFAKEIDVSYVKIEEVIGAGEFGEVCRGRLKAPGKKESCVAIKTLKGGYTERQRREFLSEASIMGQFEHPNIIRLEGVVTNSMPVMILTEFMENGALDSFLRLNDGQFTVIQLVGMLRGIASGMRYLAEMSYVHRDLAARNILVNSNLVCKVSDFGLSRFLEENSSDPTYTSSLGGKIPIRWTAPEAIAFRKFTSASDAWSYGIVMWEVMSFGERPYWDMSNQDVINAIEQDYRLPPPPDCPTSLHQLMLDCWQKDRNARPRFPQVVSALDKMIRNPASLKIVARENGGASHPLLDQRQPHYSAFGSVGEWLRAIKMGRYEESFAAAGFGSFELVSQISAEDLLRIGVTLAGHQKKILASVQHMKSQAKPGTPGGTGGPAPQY
Kind of experiment: Inhibition of human EPHB4 assessed as residual activity at 1 uM using polyEY as substrate in presence of 33P-ATP by ProQinase assay relative to control.

In experiment [8] the test system is Fibroblast growth factor receptor 1 (Homo sapiens), P11362 [V561M]. As to the kind of experiment: Inhibition of human FGFR1 V561M mutant assessed as residual activity at 1 uM using Poly(Ala,Glu,Lys,Tyr)6:2:5:1 as substrate in presence of 33P-ATP by ProQinase assay relative to control.
Experiment [9] addresses Myosin light chain kinase 2, skeletal/cardiac muscle (Homo sapiens) (UniProt Q9H1R3). As to the kind of experiment: Inhibition of human MYLK2 assessed as residual activity at 1 uM using RB-S6P as substrate in presence of 33P-ATP by ProQinase assay relative to control.
Experiment [10] has as its target Serine/threonine-protein kinase PAK 6 (Homo sapiens) (UniProt Q9NQU5). Kind of experiment: Inhibition of human PAK6 assessed as residual activity at 1 uM using bio-4xCHKT as substrate in presence of 33P-ATP by ProQinase assay relative to control.
Experiment [11] concerns the target Lymphokine-activated killer T-cell-originated protein kinase (Homo sapiens) (UniProt Q96KB5). Kind of experiment: Inhibition of human PBK assessed as residual activity at 1 uM using histon H1 as substrate in presence of 33P-ATP by ProQinase assay relative to control.
The target of experiment [12] is Protein kinase C gamma type (Homo sapiens) (UniProt P05129). Kind of experiment: Inhibition of human PKCgamma assessed as residual activity at 1 uM using 3xChocktide-PKC(19-31) as substrate in presence of 33P-ATP by ProQinase assay relative to control.
The target of experiment [13] is Serine/threonine-protein kinase WNK2 (Homo sapiens) (UniProt Q9Y3S1). Kind of experiment: Inhibition of human WNK2 assessed as residual activity at 1 uM using RBER-CHKtide as substrate in presence of 33P-ATP by ProQinase assay relative to control.

Chain of Cyclin-dependent kinase 5/CDK5 activator 1 (Homo sapiens) (Q00535 whole entry): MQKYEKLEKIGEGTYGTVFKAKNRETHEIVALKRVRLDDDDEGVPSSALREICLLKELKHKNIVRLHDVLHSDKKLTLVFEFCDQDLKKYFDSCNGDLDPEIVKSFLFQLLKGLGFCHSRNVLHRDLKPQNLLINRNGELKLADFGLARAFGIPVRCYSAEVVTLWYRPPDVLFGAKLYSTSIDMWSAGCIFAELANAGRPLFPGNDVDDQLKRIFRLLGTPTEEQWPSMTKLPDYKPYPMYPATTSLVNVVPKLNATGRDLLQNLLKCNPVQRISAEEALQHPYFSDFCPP
Chain of Cyclin-dependent kinase 5/CDK5 activator 1 (Homo sapiens) (Q15078 99-307 partner limits assumed): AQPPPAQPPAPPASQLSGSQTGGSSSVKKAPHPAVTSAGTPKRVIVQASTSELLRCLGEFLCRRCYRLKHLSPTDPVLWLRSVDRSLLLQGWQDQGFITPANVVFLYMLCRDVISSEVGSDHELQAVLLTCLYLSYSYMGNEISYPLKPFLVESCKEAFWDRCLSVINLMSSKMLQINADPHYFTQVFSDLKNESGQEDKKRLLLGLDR
Chain of Mitogen-activated protein kinase kinase kinase 5 (Homo sapiens) (Q99683 whole entry): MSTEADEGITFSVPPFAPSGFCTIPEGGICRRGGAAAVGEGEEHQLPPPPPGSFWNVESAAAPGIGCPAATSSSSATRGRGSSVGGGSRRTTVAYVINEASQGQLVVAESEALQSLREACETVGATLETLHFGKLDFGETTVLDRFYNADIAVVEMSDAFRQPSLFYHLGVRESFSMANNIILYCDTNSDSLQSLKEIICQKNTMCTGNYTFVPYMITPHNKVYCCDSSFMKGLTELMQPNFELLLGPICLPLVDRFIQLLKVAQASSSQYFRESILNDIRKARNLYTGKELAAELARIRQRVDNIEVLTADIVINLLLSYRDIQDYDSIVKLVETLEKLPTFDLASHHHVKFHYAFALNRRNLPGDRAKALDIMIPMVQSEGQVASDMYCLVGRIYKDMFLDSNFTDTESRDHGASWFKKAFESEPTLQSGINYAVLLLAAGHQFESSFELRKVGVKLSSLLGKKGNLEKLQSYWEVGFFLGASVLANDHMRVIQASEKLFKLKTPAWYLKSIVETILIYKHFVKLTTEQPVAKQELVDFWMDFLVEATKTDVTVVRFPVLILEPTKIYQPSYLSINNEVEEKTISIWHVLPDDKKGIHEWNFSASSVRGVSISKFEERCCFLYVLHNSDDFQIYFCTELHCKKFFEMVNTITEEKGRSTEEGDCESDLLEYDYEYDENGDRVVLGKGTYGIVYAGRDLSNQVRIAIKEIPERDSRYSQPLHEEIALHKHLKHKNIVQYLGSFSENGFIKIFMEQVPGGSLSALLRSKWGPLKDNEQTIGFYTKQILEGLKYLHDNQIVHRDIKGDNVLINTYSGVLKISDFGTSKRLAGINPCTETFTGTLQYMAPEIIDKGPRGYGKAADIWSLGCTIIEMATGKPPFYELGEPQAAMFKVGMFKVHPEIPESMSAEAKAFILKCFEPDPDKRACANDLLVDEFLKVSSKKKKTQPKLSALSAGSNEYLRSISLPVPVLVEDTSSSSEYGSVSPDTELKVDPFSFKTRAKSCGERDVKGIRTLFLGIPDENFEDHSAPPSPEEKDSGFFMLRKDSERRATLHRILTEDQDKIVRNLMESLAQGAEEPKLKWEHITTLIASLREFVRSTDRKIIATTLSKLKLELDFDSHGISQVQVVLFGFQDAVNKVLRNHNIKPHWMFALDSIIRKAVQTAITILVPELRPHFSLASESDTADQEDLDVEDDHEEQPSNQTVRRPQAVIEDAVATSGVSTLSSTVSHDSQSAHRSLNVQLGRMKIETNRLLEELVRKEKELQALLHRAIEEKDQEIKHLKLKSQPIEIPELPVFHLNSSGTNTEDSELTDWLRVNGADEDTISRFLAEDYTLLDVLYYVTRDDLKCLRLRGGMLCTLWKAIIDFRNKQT
Chain of Serine/threonine-protein kinase PAK 6 (Homo sapiens) (Q9NQU5 whole entry, looked up): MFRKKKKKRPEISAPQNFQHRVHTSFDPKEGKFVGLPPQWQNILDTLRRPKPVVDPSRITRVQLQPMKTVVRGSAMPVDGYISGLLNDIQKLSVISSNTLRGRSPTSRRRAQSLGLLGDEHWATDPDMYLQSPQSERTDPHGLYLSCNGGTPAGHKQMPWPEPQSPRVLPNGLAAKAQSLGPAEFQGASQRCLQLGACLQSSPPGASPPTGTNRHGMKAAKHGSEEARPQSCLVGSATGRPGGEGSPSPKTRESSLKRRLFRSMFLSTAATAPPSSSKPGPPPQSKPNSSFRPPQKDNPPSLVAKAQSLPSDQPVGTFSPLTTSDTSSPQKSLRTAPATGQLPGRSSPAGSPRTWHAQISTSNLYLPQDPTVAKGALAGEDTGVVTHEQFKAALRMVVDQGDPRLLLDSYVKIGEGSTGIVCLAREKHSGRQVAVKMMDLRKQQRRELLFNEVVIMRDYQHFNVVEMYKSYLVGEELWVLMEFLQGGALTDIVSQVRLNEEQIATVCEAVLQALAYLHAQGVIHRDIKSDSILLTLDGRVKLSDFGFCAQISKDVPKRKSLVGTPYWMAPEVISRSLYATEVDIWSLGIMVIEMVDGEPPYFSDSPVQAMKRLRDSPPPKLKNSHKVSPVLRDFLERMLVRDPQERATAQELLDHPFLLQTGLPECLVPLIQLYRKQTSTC
Chain of Lymphokine-activated killer T-cell-originated protein kinase (Homo sapiens) (Q96KB5 whole entry): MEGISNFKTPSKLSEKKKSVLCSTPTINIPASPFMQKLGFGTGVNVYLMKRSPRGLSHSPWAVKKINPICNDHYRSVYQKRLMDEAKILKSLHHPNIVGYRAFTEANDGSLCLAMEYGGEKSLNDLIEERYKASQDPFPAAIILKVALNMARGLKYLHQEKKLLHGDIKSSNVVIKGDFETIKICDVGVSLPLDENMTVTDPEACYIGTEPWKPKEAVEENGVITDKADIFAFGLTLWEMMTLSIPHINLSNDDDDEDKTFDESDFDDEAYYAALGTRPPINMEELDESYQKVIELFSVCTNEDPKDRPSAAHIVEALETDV

As for `O=C1c2ccc(Nc3ccc(F)cc3F)cc2CCc2ccc(OC[C@H](O)CO)cc21` [Skepinone-L], the Activity came to 93% in experiment [1]; 100% in experiment [2]; 100% in experiment [3]; 100% in [4]; 99% in experiment [5]; 88% in experiment [6]. Further, the Activity in experiment [7] amounted to 128%; in experiment [8] it was 89%; in experiment [9] it was 92%; in experiment [10] it was 101%; in [11] it was 113%; in experiment [12], 99%. Also, the Activity in experiment [13] turned out to be 95%.
